From patent US6517864B1 (Pharmacia AB, priority 1998, dated 2003)

Columns and labels:
guinea pigs = assay: Delayed contact hypersensitivity, Guinea Pig Maximization Test; format: in vivo; conditions: 1% intradermal induction, 25% topical induction and challenge, in sesame oil
Source text: The delayed contact hypersensitivity test used was the Guinea Pig Maximization Test described by B. Magnusson and A. M. Kligman.
A 1% (w/w) test article concentration in sesame oil was used for the intradermal induction. A 25% (w/w) test article concentration in sesame oil was used for the topical induction and for the challenge application.

[1] = In vitro permeation across synthetic membranes and dermatomed pig skin from solutions of tolterodine base (Franz diffusion cells, Example 2); format: in vitro ADME
Experimental: In vitro skin permeation results were obtained from studies on pig or human skin using Franz diffusion cells.
Full thickness pig and human skin (used in Example 1) or 765 μm skin (used in all other Examples) was used. The 765 μm skin was isolated by using a dermatome (Zimmer Electric Dermatome 8821, Zimmer Chirurgie).
The skin was mounted in the diffusion cells with an available diffusion area of 1.8 cm^2. The inner side of the skin was exposed to 12.1 ml receptor phase (0.05M phosphate buffer, pH 7.4) at 37±1° C. Samples were withdrawn periodically and measured by HPLC. Fluxes (>g/cm^2/h) were obtained by linear regression of data at steady state.
In vitro permeation studies across synthetic membranes and dermatomed pig skin from solutions of tolterodine base, imitating the reservoir type transdermal device. Enhancer was added to one of the solutions.
Membranes of the following types were used: CoTran 9702 (microporous polyethylene film) with 9% vinyl acetate (VA) and CoTran 9728 with 19% vinyl acetate. The solutions 3 and 4 were both applied on the surface of the two mentioned membranes while solution 5 only was applied on the surface of the CoTran 9702 membrane with 9% vinyl acetate. The membranes were placed on top of dermatomed pigskin. The inner sides of the pigskin were exposed to 12.1 ml receptor solution (0.05M phosphate pH 7.4 equilibrated to 37±1° C.).

[2] = poor metabolizer; cited from earlier work
solubility in water = conditions: room temperature
[3] = pharmacokinetics of oral tolterodine (background data); conditions: extensive metabolisers, EMs
[4] = partition coefficient between n-octanol and phosphate buffer; conditions: n-octanol / phosphate buffer at pH 7.32

**Q.** With tolterodine L-tartrate as the substance, how does the “delayed contact hypersensitivity reaction” value (guinea pigs) read?
**A.** did not provoke a delayed contact hypersensitivity reaction

**Q.** For “N,N-dilso-propyl-3′-(2-hydroxy-5-methylphenyl)-3-phenylpropanamine [Tolterodine]”, which flux ([1]; 1 or 3% HPC/ethanol solution, 9% VA CoTran membrane on dermatomed pigskin) is on record?
**A.** about 4 μg/cm^2/h

**Q.** What about the flux ([1]; 1 or 3% HPC/ethanol solution, 19% VA CoTran membrane on dermatomed pigskin) of the same substance?
**A.** about 11 μg/cm^2/h

**Q.** And the flux ([1]; enhancer (methyl laurate:ethanol 1:9), 9% VA CoTran membrane on dermatomed pigskin)?
**A.** 9 μg/cm^2/h

**Q.** And the “systemic clearance (CL)” value [2]?
**A.** about 10 L/h

**Q.** What about the solubility in water (solubility in water) of the same substance?
**A.** about 11 mg/ml

**Q.** What about the half-life [3] of the same substance?
**A.** about 2 hours

**Q.** What about the “partition coefficient (Log P)” value [4] of the same substance?
**A.** 1.83
